Reference: PubChem BioAssay (NCI)
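Exposure lasted 48 hours, with cells grown in 96-well plates and compounds tested at five concentrations. GI50 = concentration required for 50% inhibition of growth. TGI: concentration producing complete growth inhibition.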

Assays:
Test in all cases: inhibition of tumour cell growth, NCI panel, 48 h
786-0 renal = test system: 786-0 renal
A498 renal = test system: A498 renal
A549 NSCLC = test system: A549 NSCLC
ACHN renal = test system: ACHN renal
BT-549 breast = test system: BT-549 breast
CAKI-1 renal = test system: CAKI-1 renal
COLO 205 colon = test system: COLO 205 colon
DU-145 prostate = test system: DU-145 prostate
EKVX NSCLC = test system: EKVX NSCLC
HCC-2998 colon = test system: HCC-2998 colon
HCT-116 colon = test system: HCT-116 colon
HCT-15 colon = test system: HCT-15 colon
HL-60(TB) leukemia = test system: HL-60(TB) leukemia
HOP-62 NSCLC = test system: HOP-62 NSCLC
HOP-92 NSCLC = test system: HOP-92 NSCLC
HS 578T breast = test system: HS 578T breast
HT29 colon = test system: HT29 colon
IGROV1 ovarian = test system: IGROV1 ovarian
K-562 leukemia = test system: K-562 leukemia
KM12 colon = test system: KM12 colon
M14 melanoma = test system: M14 melanoma
MALME-3M melanoma = test system: MALME-3M melanoma
MCF7 breast = test system: MCF7 breast
MDA-MB-231 breast = test system: MDA-MB-231 breast
MDA-MB-435 = test system: MDA-MB-435
MOLT-4 leukemia = test system: MOLT-4 leukemia

CCOP(=O)(CCN1CCN(CCCCCOc2cc3c(cc2OC)C(=O)N2CCC[C@H]2C=N3)CC1)OCC
GI50 (786-0 renal): 12.5 µM
TGI (786-0 renal): > 100 µM
GI50 (A498 renal): 15 µM
TGI (A498 renal): 43 µM
GI50 (A549 NSCLC): 8.55 µM
TGI (A549 NSCLC): 34.8 µM
GI50 (ACHN renal): 18.5 µM
TGI (ACHN renal): 50.4 µM
GI50 (BT-549 breast): 5.96 µM
TGI (BT-549 breast): 31.7 µM
GI50 (CAKI-1 renal): 5.84 µM
TGI (CAKI-1 renal): 97.9 µM
GI50 (COLO 205 colon): 3.39 µM
TGI (COLO 205 colon): 12.9 µM
GI50 (DU-145 prostate): 17.8 µM
TGI (DU-145 prostate): 63.3 µM
GI50 (EKVX NSCLC): 19.5 µM
TGI (EKVX NSCLC): 47.8 µM
GI50 (HCC-2998 colon): 17.3 µM
TGI (HCC-2998 colon): 38.1 µM
GI50 (HCT-116 colon): 7.66 µM
TGI (HCT-116 colon): 80.8 µM
GI50 (HCT-15 colon): 80 µM
TGI (HCT-15 colon): > 100 µM
GI50 (HL-60(TB) leukemia): 1.82 µM
TGI (HL-60(TB) leukemia): 8.39 µM
GI50 (HOP-62 NSCLC): 23 µM
TGI (HOP-62 NSCLC): > 100 µM
GI50 (HOP-92 NSCLC): 12.6 µM
TGI (HOP-92 NSCLC): 94.9 µM
GI50 (HS 578T breast): 3.54 µM
TGI (HS 578T breast): 31.1 µM
GI50 (HT29 colon): 6.84 µM
TGI (HT29 colon): > 100 µM
GI50 (IGROV1 ovarian): 2.74 µM
TGI (IGROV1 ovarian): 18.7 µM
GI50 (K-562 leukemia): 2.37 µM
TGI (K-562 leukemia): > 100 µM
GI50 (KM12 colon): 12.1 µM
TGI (KM12 colon): 36.3 µM
GI50 (M14 melanoma): 8.01 µM
TGI (M14 melanoma): 25.8 µM
GI50 (MALME-3M melanoma): 18.4 µM
TGI (MALME-3M melanoma): 47.7 µM
GI50 (MCF7 breast): 1.89 µM
TGI (MCF7 breast): 23.8 µM
GI50 (MDA-MB-231 breast): 4.55 µM
TGI (MDA-MB-231 breast): > 100 µM
GI50 (MDA-MB-435): 3.36 µM
TGI (MDA-MB-435): 17.3 µM
GI50 (MOLT-4 leukemia): 2.16 µM
TGI (MOLT-4 leukemia): 6.37 µM
